Laboratory results reported in patent US20200237743A1, “CRAC CHANNEL MODULATORS FOR TREATING ESOPHAGEAL CANCER” (Rhizen Pharmaceuticals SA, priority 2017, published 2020).

Key:
[1] = system: KYSE-150 mouse xenograft model; test: Anti-tumor effect in esophageal cancer xenograft; format: in vivo; settings: 20 mg/kg intra-peritoneal every 2 days for 2 weeks, KYSE-150 xenograft mice
Protocol: (§1) The anti-tumor effect of Compound (A) was determined in a KYSE-150 mouse xenograft model. Briefly, 10^6 cells were injected into the flank region. Mice were randomized according to body weight into two groups of five. A week after tumor cell injection, mice either received the vehicle or intra-peritoneal administration of Compound (A) at 20 mg/kg every 2 days for a 2 week period. At the end of the study period, animals were sacrificed and the tumors harvested.

KYSE-780 = test: Anti-proliferative effect in human ESCC cell lines (MTT assay); format: cell-based; settings: KYSE-780, MTT, 48-72 h incubation, read-out: IC50, cell viability
[2] = system: NF-κB/p65 nuclear translocation in KYSE-150 cells; test: NF-κB/p65 nuclear translocation upon serum stimulation in ESCC cells; format: cell-based, human; settings: 10% FBS stimulation 1 h (about 84% without treatment)
Protocol: (§2) Compound (A) was tested on blocking nuclear factor kappa B (NF-κB/p65) nuclear translocation upon serum stimulation in ESCC cells. KYSE-150 cells were starved in medium supplemented with 0.1% FBS for 24 h. […] Upon 10% FBS stimulation for 1 h, NF-κB/p65 appeared to translocate to nuclei evidenced by co-localization of nuclei in about 84% of KYSE-150 cells.

[3] = system: NF-κB/p65 in tumor tissues; test: Immunofluorescence staining of xenograft tumor tissues (nuclear NF-κB/p65, cyclin D1); format: in vivo, mouse
Protocol: as §1, §2

KYSE-30 = test: Anti-proliferative effect in human ESCC cell lines (MTT assay); format: cell-based; settings: KYSE-30, MTT, 48-72 h incubation, read-out: IC50, cell viability
Protocol: (§3) ESCC cell lines (KYSE-30, KYSE-150, KYSE-790, and KYSE-70) were plated in 96-well plates and incubated with desired concentrations of Compound A for 48-72 h. At the end of the incubation period, MTT (3-(4,5-dimethylthiazol-2-yl)-2,5-diphenyltetrazolium bromide) was added. The plate was placed on a shaker for 5 min to mix the formazan and the optical density at 560 nm was measured on a spectrophotometer. Data were plotted using Graphpad Prism for calculation of the IC50 concentrations.

KYSE-150 = test: as above; format: cell-based; settings: KYSE-150, MTT, 48-72 h incubation, read-out: IC50, cell viability
Protocol: as §3

KYSE-70 = test: as above; format: cell-based; settings: KYSE-70, MTT, 48-72 h incubation, read-out: IC50, cell viability
Protocol: as §3

Row | SMILES | tumor growth compared to vehicle treated control group [1] | IC50 (KYSE-780) | number of cells with NF-κB/p65 nuclear localization ([2]; 10 μM) | nuclear NF-κB/p65 positive cells number in tumor tissues ([3]; immunofluorescence of tumor tissues, 41% in control animals) | expression of cyclin D1 in tumors compared with control group animals ([3]; tumors removed from treated animals) | IC50 (KYSE-30) | IC50 (KYSE-150) | IC50 (KYSE-70) | number of cells with NF-κB/p65 nuclear localization ([2]; 20 μM)
1 | O=C(Cc1ccc2ncccc2c1)Nc1ccc(-n2nc(C3CC3)cc2C2CC2)cc1 [Compound (A), N-(4-(3,5-dicyclopropyl-1H-pyrazol-1-yl)phenyl)-2-(quinolin-6-yl)acetamide] | significantly reduced tumor growth | 5500 nM | 10.52% | 9% | dramatically reduced | 1200 nM | 1400 nM | 1400 nM | 
2 | Cc1nnsc1C(=O)Nc1ccc(-n2nc(C(F)(F)F)cc2C(F)(F)F)cc1 [BTP-2, reference compound] |  |  |  |  |  |  |  |  | 8.53%
